Where “and” joins values, the source holds several entries; their conditions need not be identical. Equal entries are not always repeated.
SMILES	melting point
COc1ccc(-c2cc(C(=O)NCc3ccccn3)c(=O)n(CC3CCCC3)n2)cc1 [Example 76, 2-Cyclopentylmethyl-6-(4-methoxyphenyl)-4-(2-pyridylmethyl)carbamoyl-2H-pyridazin-3-one]	126.6 to 127.5 °C
COC(=O)c1cc(-c2ccc(OC)c(F)c2)nn(CC=Cc2ccc(Cl)cc2)c1=O [Example 33, 2-(4-Chlorocinnamyl)-6-(3-fluoro-4-methoxyphenyl)-4-methoxycarbonyl-2H-pyridazin-3-one]	131.3 to 132.3 °C
COC(=O)c1cc(-c2ccc(OC)c(OC)c2)nn(CC=Cc2ccc(Cl)cc2)c1=O [Example 32, 2-(4-Chlorocinnamyl)-6-(3,4-dimethoxyphenyl)-4-methoxycarbonyl-2H-pyridazin-3-one]	117.5 to 118.7 °C
CNC(=O)c1cc(-c2ccc(OC)cc2)nn(CCO)c1=O [Example 49, 2-(2-Hydroxyethyl)-6-(4-methoxyphenyl)-4-methylcarbamoyl-2H-pyridazin-3-one]	160.3 to 160.6 °C
CNC(=O)c1cc(-c2ccc(OC)cc2)nn(C(C)C)c1=O [Example 52, 2-Isopropyl-6-(4-methoxyphenyl)-4-methylcarbamoyl-2H-pyridazin-3-one]	154 to 154.3 °C
CNC(=O)c1cc(-c2ccc(OC)c(OC)c2)nn(CC(C)C)c1=O [Example 53, 6-(3,4-Dimethoxyphenyl)-2-isobutyl-4-methylcarbamoyl-2H-pyridazin-3-one]	111.4 to 112.6 °C
COc1ccc(-c2cc(C(=O)NCc3ccccc3)c(=O)n(CC3CCCC3)n2)cc1 [Example 75, 4-Benzylcarbamoyl-2-cyclopentylmethyl-6-(4-methoxyphenyl)-2H-pyridazin-3-one]	107.6 to 108.1 °C
NC(=O)c1cc(-c2ccc(F)c(Cl)c2)nn(CC=Cc2ccccc2)c1=O [Example 127, 4-carbamoyl-6-(3-chloro-4-fluorophenyl)-2-cinnamyl-2H-pyridazin-3-one]	211 to 212 °C
COC(=O)c1cc(-c2ccc(OC)cc2)nn(Cc2ccc(N)cc2)c1=O [Example 26, 2-(4-Aminobenzyl)-4-methoxycarbonyl-6-(4-methoxyphenyl)-2H-pyridazin-3-one]	160 to 161.9 °C
COC(=O)c1cc(-c2ccc(OC)c(F)c2)nn(CC2CC2)c1=O [Example 18, 2-Cyclopropylmethyl-6-(3-fluoro-4-methoxyphenyl)-4-methoxycarbonyl-2H-pyridazin-3-one]	139.6 to 140.7 °C
COC(=O)c1cc(-c2ccc(SC)cc2)nn(CC=Cc2ccc(Cl)cc2)c1=O [Example 35, 2-(4-Chlorocinnamyl)-4-methoxycarbonyl-6-[4-(methylthio)phenyl]-2H-pyridazin-3-one]	123.3 to 126.2 °C
COc1ccc(-c2cc(C(=O)O)c(=O)n(CC=Cc3ccc(Cl)cc3)n2)cc1Cl [Example 105, 4-carboxy-2-(4-chlorocinnamyl)-6-(3-chloro-4-methoxyphenyl)-2H-pyridazin-3-one]	183 to 183.8 °C
CNC(=O)c1cc(-c2ccc(OC)cc2)nn(CC2CCCC2)c1=O [Example 72, 2-Cyclopentylmethyl-6-(4-methoxyphenyl)-4-methylcarbamoyl-2H-pyridazin-3-one]	107.4 to 107.8 °C
COc1ccc(-c2cc(C(=O)NCc3ccccc3)c(=O)n(CC3CC3)n2)cc1 [Example 68, 4-Benzylcarbamoyl-2-cyclopropylmethyl-6-(4-methoxyphenyl)-2H-pyridazin-3-one]	119.7 to 120.1 °C
COc1ccc(-c2cc(NC(=O)OCc3ccccc3)c(=O)n(CC=Cc3ccc(Cl)cc3)n2)cc1 [Example 90, 4-benzyloxycarbonylamino-2-(4-chlorocinnamyl)-6-(4-methoxyphenyl)-2H-pyridazin-3-one]	190.5 to 191.7 °C
COc1ccc(-c2cc(C(N)=O)c(=O)n(CC3CCCC3)n2)cc1 [Example 40, 4-Carbamoyl-2-cyclopentylmethyl-6-(4-methoxyphenyl)-2H-pyridazin-3-one]	182.2 to 183.3 °C
CCCn1nc(-c2ccc(OC)cc2)cc(C(=O)OC)c1=O [Example 4, 4-Methoxycarbonyl-6-(4-methoxyphenyl)-2-n-propyl-2H-pyridazin-3-one]	106.5 to 107.1 °C and 104.8 to 105.8 °C
COc1ccc(-c2cc(NC(=O)OCc3ccc(SC)cc3)c(=O)n(CC=Cc3ccc(Cl)cc3)n2)cc1 [Example 91, 2-(4-chlorocinnamyl)-6-(4-methoxyphenyl)-4-[4-(methylthio)benzyloxycarbonylamino]-2H-pyridazin-3-one]	187.6 to 188.7 °C
CNC(=S)c1cc(-c2ccc(OC)c(F)c2)nn(CC2CC2)c1=O [Example 129, 2-cyclopropylmethyl-6-(3-fluoro-4-methoxyphenyl)-4-methylthiocarbamoyl-2H-pyridazin-3-one]	178 to 178.5 °C
CCC(=O)Nc1cc(-c2ccc(OC)cc2)nn(CC=Cc2ccc(Cl)cc2)c1=O [Example 114, 2-(4-chlorocinnamyl)-6-(4-methoxy-phenyl)-4-propionylamino-2H-pyridazin-3-one]	147.7 to 148.6 °C
COc1ccc(-c2cc(C(N)=O)c(=O)n(CC3CC3)n2)cc1 [Example 39, 4-Carbamoyl-2-cyclopropylmethyl-6-(4-methoxyphenyl)-2H-pyridazin-3-one]	182.2 to 183.3 °C
CCOC(=O)c1cc(-c2ccc(OC)cc2)nn(CC2CC2)c1=O [Example 16, 2-Cyclopropylmethyl-4-ethoxycarbonyl-6-(4-methoxyphenyl)-2H-pyridazin-3-one]	80.1 to 80.9 °C
CNC(=O)c1cc(-c2ccc(OC)cc2)nn(CC=Cc2ccc(Cl)cc2)c1=O [Example 85, 2-(4-Chlorocinnamyl)-6-(4-methoxyphenyl)-4-methylcarbamoyl-2H-pyridazin-3-one]	184.2 to 185.4 °C
COC(=O)c1cc(-c2ccc(OC)cc2)nn(Cc2ccc(NC(=O)c3cccnc3)cc2)c1=O [Example 27, 4-Methoxycarbonyl-6-(4-methoxyphenyl)-2-[4-(3-pyridylcarbonylamino)benzyl]-2H-pyridazin-3-one]	235.7 to 236.9 °C (dec.)
COc1ccc(-c2cc(NC(=O)NC(C)C)c(=O)n(CC3CC3)n2)cc1 [Example 125, 2-cyclopropylmethyl-4-(3-isopropylureido)-6-(4-methoxyphenyl)-2H-pyridazin-3-one]	195.8 to 197 °C
COc1ccc(-c2cc(NC(=O)OCCCCCc3ccccc3)c(=O)n(CC=Cc3ccc(Cl)cc3)n2)cc1 [Example 118, 2-(4-chlorocinnamyl)-6-(4-methoxyphenyl)-4-[N-(3-phenylpropyl)ethoxycarbonylamino]-2H-pyridazin-3-one]	113.5 to 114.2 °C

Reference: patent publication US6403586B1, “Pyridazine derivatives and drugs containing the same as the active ingredient” (Kowa Co., Ltd., priority 1998, dated 2002)
